According to patent US10189841B2, “Purinones as ubiquitin-specific protease 1 inhibitors” (Forma Therapeutics, Inc., priority 2015, dated 2019):

Each molecule was assayed against USP1 (construct USP1 (I-785, GG670, 671AA)/UAF1 (I-677)-Flag) (Homo sapiens (Human), UniProt O94782, G670A/G671A) (assay: Ubiquitin-Rhodamine 110 assay for USP1 activity). Conditions: USP1/UAF1 25 pM, Ub-Rh110 25 nM, 30 min preincubation.
Chain of USP1 (construct USP1 (I-785, GG670, 671AA)/UAF1 (I-677)-Flag) (O94782 whole entry G670A/G671A): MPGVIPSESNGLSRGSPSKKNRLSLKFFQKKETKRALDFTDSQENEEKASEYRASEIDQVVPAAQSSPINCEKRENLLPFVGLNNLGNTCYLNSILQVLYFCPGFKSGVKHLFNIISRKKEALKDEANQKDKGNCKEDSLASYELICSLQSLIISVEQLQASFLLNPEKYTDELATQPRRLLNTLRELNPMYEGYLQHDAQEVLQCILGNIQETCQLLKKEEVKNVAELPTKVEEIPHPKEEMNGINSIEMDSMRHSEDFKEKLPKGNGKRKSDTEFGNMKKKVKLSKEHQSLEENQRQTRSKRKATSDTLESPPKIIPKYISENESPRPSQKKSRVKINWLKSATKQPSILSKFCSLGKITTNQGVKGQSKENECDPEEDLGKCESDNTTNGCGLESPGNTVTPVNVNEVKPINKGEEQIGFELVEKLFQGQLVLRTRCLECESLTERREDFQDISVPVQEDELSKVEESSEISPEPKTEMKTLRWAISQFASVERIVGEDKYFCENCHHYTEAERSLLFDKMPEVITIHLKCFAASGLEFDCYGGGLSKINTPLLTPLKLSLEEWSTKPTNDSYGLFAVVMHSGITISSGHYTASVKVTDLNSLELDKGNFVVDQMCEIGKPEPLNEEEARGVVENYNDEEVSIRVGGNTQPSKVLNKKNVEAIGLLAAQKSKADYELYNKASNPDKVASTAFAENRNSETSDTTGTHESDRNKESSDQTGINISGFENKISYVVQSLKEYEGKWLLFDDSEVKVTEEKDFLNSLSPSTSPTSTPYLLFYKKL
Chain of USP1 (construct USP1 (I-785, GG670, 671AA)/UAF1 (I-677)-Flag) (Q8TAF3 whole entry partner): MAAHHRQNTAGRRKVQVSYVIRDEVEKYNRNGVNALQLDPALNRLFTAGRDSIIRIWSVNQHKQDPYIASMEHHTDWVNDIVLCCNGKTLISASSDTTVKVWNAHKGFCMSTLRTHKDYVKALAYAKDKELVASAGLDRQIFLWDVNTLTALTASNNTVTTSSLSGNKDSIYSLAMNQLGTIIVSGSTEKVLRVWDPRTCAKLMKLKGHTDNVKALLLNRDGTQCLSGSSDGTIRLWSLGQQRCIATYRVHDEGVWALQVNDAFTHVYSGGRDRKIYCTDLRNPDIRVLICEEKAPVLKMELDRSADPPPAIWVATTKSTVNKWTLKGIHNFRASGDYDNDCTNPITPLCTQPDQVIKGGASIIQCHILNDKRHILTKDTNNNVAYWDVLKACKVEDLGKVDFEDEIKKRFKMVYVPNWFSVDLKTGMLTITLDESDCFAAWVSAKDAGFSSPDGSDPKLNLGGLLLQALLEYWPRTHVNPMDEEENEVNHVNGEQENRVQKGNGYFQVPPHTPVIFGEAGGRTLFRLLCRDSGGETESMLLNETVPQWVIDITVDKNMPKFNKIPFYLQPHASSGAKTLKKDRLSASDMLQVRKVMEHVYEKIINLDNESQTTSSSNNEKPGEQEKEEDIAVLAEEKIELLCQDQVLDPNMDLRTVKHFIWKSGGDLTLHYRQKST
Format: biochemical
In short: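 Ub-Rh110 (25 nM, ≪Km) cleavage read at ex 485/em 535 in Tris pH 8.0, CaCl2, GSH, Prionex, Triton X-100. The screen used 10 µM compound, 100 pM USP1/UAF1 and 45 min at RT.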
Molecule `COCCN(C(=O)c1ccc(Cn2c(=O)[nH]c3cnc(-c4ccccc4C(C)C)nc32)cc1)C(C)C` [Compound I-370, N-isopropyl-4-((2-(2-isopropylphenyl)-8-oxo-7,8-dihydro-9H-purin-9-yl)methyl)-N-(2-methoxyethyl)benzamide] has an IC50 of 50 to 200 nM. For `CC(C)Oc1cc(F)ccc1-c1ncc2[nH]c(=O)n(Cc3ccc(-n4nccn4)cc3)c2n1` [Compound I-15, 9-(4-(2H-1,2,3-triazol-2-yl)benzyl)-2-(4-fluoro-2-isopropoxyphenyl)-7,9-dihydro-8H-purin-8-one], the IC50 was > 2000 nM. `CCc1ncccc1-c1ncc2c(n1)n(Cc1ccc(-c3nc(C(F)(F)F)cn3C)cc1)c(=O)n2C` [Compound I-61, 2-(2-ethylpyridin-3-yl)-7-methyl-9-(4-(1-methyl-4-(trifluoromethyl)-1H-imidazol-2-yl)benzyl)-7,9-dihydro-8H-purin-8-one] showed an IC50 of 50 to 200 nM. In the case of `COc1nc(-c2ccc(Cn3c(=O)[nH]c4cnc(-c5ccccc5C(C)C)nc43)cc2)nn1C` [Compound I-295, 2-(2-isopropylphenyl)-9-(4-(5-methoxy-1-methyl-1H-1,2,4-triazol-3-yl)benzyl)-7,9-dihydro-8H-purin-8-one], the IC50 is reported as < 50 nM. `CCN(CC)c1ncccc1-c1ncc2[nH]c(=O)n(Cc3ccc(-c4nc(C(F)(F)F)cn4C)cc3)c2n1` [Compound I-324, 2-(2-(diethylamino)pyridin-3-yl)-9-(4-(1-methyl-4-(trifluoromethyl)-1H-imidazol-2-yl)benzyl)-7,9-dihydro-8H-purin-8-one] was tested, and the IC50 was < 50 nM. Molecule `COCCN(C)c1ccc(Cn2c(=O)n(C)c3cnc(-c4ccccc4C(C)C)nc32)cc1` [Compound I-491, 2-(2-isopropylphenyl)-9-(4-((2-methoxyethyl)(methyl)amino)benzyl)-7-methyl-7,9-dihydro-8H-purin-8-one] has an IC50 of 200 to 2000 nM. `CC(C)c1ccccc1-c1ncc2[nH]c(=O)n(Cc3ccc(C(=O)Nc4nccn4C)cc3)c2n1` [Compound I-372, 4-((2-(2-isopropylphenyl)-8-oxo-7,8-dihydro-9H-purin-9-yl)methyl)-N-(1-methyl-1H-imidazol-2-yl)benzamide] was tested, and the IC50 was 50 to 200 nM. In the case of `Cn1cc(C(F)(F)F)nc1-c1ccc(Cn2c(=O)n(C)c3cnc(-c4cccnc4C(F)F)nc32)cc1` [Compound I-72, 2-(2-(difluoromethyl)pyridin-3-yl)-7-methyl-9-(4-(1-methyl-4-(trifluoromethyl)-1H-imidazol-2-yl)benzyl)-7,9-dihydro-8H-purin-8-one], the IC50 is reported as 200 to 2000 nM. `Cn1cc(C(F)(F)F)nc1-c1ccc(Cn2c(=O)[nH]c3cnc(-c4cccnc4F)nc32)cc1` [Compound I-57, 2-(2-fluoropyridin-3-yl)-9-(4-(1-methyl-4-(trifluoromethyl)-1H-imidazol-2-yl)benzyl)-7,9-dihydro-8H-purin-8-one] showed an IC50 of 200 to 2000 nM. `Cc1nnn(-c2ccc(Cn3c(=O)[nH]c4cnc(-c5ccccc5C(C)C)nc43)cc2)n1` [Compound I-168, 2-(2-isopropylphenyl)-9-(4-(5-methyl-2H-tetrazol-2-yl)benzyl)-7,9-dihydro-8H-purin-8-one] showed an IC50 of 50 to 200 nM. `CC(C)c1ccccc1-c1ncc2[nH]c(=O)n(Cc3ccc(C(=O)NC4CCCC4)cc3)c2n1` [Compound I-358, N-cyclopentyl-4-((2-(2-isopropylphenyl)-8-oxo-7,8-dihydro-9H-purin-9-yl)methyl)benzamide] was tested, and the IC50 was 50 to 200 nM. `CC(C)c1ccccc1-c1ncc2c(n1)n(Cc1ccc(-c3ccc(CCN(C)C)cc3)cc1)c(=O)n2C` [Compound I-262, 9-((4′-(2-(dimethylamino)ethyl)-[1,1′-biphenyl]-4-yl)methyl)-2-(2-isopropylphenyl)-7-methyl-7,9-dihydro-8H-purin-8-one] gave an IC50 of 50 to 200 nM. For `COc1ncccc1-c1ncc2[nH]c(=O)n(Cc3ccc(-c4nc(C(F)(F)F)cn4C)cc3)c2n1` [Compound I-412, 2-(2-methoxypyridin-3-yl)-9-(4-(1-methyl-4-(trifluoromethyl)-1H-imidazol-2-yl)benzyl)-7,9-dihydro-8H-purin-8-one], the IC50 was < 50 nM.
